{"source": "patent EP1992228A1", "about": "“Insecticidal substituted thiourea derivatives” (Bayer CropScience AG, priority 2007, dated 2008)", "key": {"Myzus persicae": {"tested_on": "Myzus persicae", "test": "Myzus persicae-test (MYZUPE, spray application)", "format": "in vivo", "conditions": "spray on Chinese cabbage leaf-disks, green peach aphid, all instars; for mortality at 500 g/ha: application rate of 500 g/ha; for mortality at 100 g/ha: application rate of 100 g/ha", "method": "Myzus persicae-test (MYZUPE, spray application) [table] [table] To produce a suitable preparation of active compound, 1 part by weight of active compound is mixed with the stated amount of solvent and emulsifier, and the concentrate is diluted with emulsifier-containing water to the desired concentration. Chinese cabbage (Brassica pekinensis) leaf-disks infected with all instars of the green peach aphid (Myzus persicae), are sprayed with a preparation of the active ingredient at the desired concentration. After the specified period of time, mortality in % is determined. 100 % means that all aphids have been killed; 0 % means that none of the […] have been killed."}, "[1]": {"test": "logP (HCOOH) determination", "format": "physicochemical"}, "Tetranychus urticae": {"tested_on": "Tetranychus urticae", "test": "Tetranychus-test, OP-resistant (TETRUR, spray application)", "format": "in vivo", "conditions": "application rate of 100 g/ha, spray on French bean, two spotted spidermite, all stages", "method": "Tetranychus-test, OP-resistant (TETRUR, spray application)\n(§1) To produce a suitable preparation of active compound, 1 part by weight of active compound is mixed with the stated amount of solvent and emulsifier, and the concentrate is diluted with emulsifier-containing water to the desired concentration.\nFrench bean (Phaseolus vulgaris) which are heavily infested with all stages of the two spotted spidermite (Tetranychus urticae), are sprayed with a preparation of the active ingredient at the desired concentration.\nAfter the specified period of time, mortality in % is determined. 100 % means that all spider mites have been killed; 0 % means that none of the […] have been killed."}, "Boophilus microplus": {"tested_on": "Boophilus microplus", "test": "Boophilus microplus-test (injektion)", "format": "in vivo", "conditions": "application rate of 20 µg/animal; injected in the abdomen", "method": "Boophilus microplus-test (injektion)\nas §1\nThe solution of the active compound is injected in the abdomen (Boophilus microplus); the animals are transferred into a cup and stayed in a rooming with an air condition.\nAfter the specified period of time, the efficiany mortality in % is determined. 100 % means that no tick has lay fertile eggs."}, "Meloidogyne incognita": {"tested_on": "Meloidogyne incognita", "test": "Meloidogyne-test, OP resistant (MELGIN spray application)", "format": "in vivo", "conditions": "application rate of 20 ppm, sand with egg/larval suspension and lettuce seeds, read-out: activity (nematicidal efficacy in % with reference to gall formation)", "method": "Meloidogyne-test, OP resistant (MELGIN spray application)\nas §1\nContainers are filled with sand, active compound solution, Meloidogyne incognita egg/larval suspension and lettuce seeds. The lettuce seeds germinate and the plantlets develop. The galls develop on the roots.\nAfter the desired time, the nematicidal efficacy is determined in % with reference to gall formation. 100 % means that no galls were found; 0 % means that the number of galls on the treated plants corresponds to that of the untreated control."}}, "data": [{"smiles": "CC[C@H](NC(=S)NCCO)c1ccccc1", "note": "[compound 13]", "values": [{"measurement": "mortality at 500 g/ha", "setting": "Myzus persicae", "value": "≥ 80", "unit": "%"}]}, {"smiles": "C[C@H](NC(=S)NCCO)c1ccc(F)cc1", "note": "[EXAMPLE 1]", "values": [{"measurement": "chromatographic logP", "setting": "[1]", "value": 1.52}]}, {"smiles": "C[C@H](NC(=S)NCCO)c1ccc(F)cc1", "note": "[compound 8]", "values": [{"measurement": "mortality at 500 g/ha", "setting": "Myzus persicae", "value": "≥ 80", "unit": "%"}]}, {"smiles": "C[C@H](NC(=S)NCCO)c1ccccc1F", "note": "[compound 6]", "values": [{"measurement": "mortality at 100 g/ha", "setting": "Myzus persicae", "value": "≥ 80", "unit": "%"}, {"measurement": "mortality at 100 g/ha", "setting": "Tetranychus urticae", "value": "≥ 80", "unit": "%"}, {"measurement": "efficiency (100 % means that no tick has lay fertile eggs)", "setting": "Boophilus microplus", "value": "≥ 80", "unit": "%"}]}, {"smiles": "C[C@H](NC(=S)NCCO)c1ccccc1", "note": "[compound 5]", "values": [{"measurement": "mortality at 500 g/ha", "setting": "Myzus persicae", "value": "≥ 80", "unit": "%"}]}, {"smiles": "C[C@H](NC(=S)NCCO)c1ccc(Cl)cc1", "note": "[Compound No. 158]", "values": [{"measurement": "inhibition at 20 ppm", "setting": "Meloidogyne incognita", "value": "≥ 80", "unit": "%"}, {"measurement": "mortality at 500 g/ha", "setting": "Myzus persicae", "value": "≥ 80", "unit": "%"}, {"measurement": "mortality at 100 g/ha", "setting": "Tetranychus urticae", "value": "≥ 80", "unit": "%"}, {"measurement": "efficiency (100 % means that no tick has lay fertile eggs)", "setting": "Boophilus microplus", "value": "≥ 80", "unit": "%"}]}, {"smiles": "C[C@H](NC(=S)NCCO)c1ccccc1F", "note": "[EXAMPLE 2]", "values": [{"measurement": "chromatographic logP", "setting": "[1]", "value": 1.5}]}, {"smiles": "CC(NC(=S)NCCO)c1cccc(F)c1", "note": "(centres unmarked) [compound 3]", "values": [{"measurement": "mortality at 100 g/ha", "setting": "Myzus persicae", "value": "≥ 80", "unit": "%"}, {"measurement": "efficiency (100 % means that no tick has lay fertile eggs)", "setting": "Boophilus microplus", "value": "≥ 80", "unit": "%"}]}]}
